Data: publication doi:10.1101/2025.01.30.635804, “Emergence of specific binding and catalysis from a designed generalist binding protein” (bioRxiv, 2025)

What follows are molecules tested against ABLE (assay: Cou485 fluorescence at varying concentrations of ABLE (control)). Details: 3 and 6 µM Cou485, fit of fluorescence vs ABLE concentration; linear increase.
Type: binding
Source text: The indicated FABLEs or ABLE (control)
Supplementary Figure 6 ç : Fitting Cou485 fluorescence at varying concentrations of ABLE
Unlike the quadratic binding curves observed with varying amounts
of FABLEs, the fluorescence of Cou485 increased linearly with increasing concentrations of […]

Structure (SMILES) | Kd [µM]
CN(C)c1ccc2c(C(F)(F)F)cc(=O)oc2c1 [Cou485, 7-(dimethylamino)-4-(trifluormethyl)-coumarin] | ≥ 500

Same assay, conditions: starting ABLE protein, non-saturable curve

Structure (SMILES) | binding curve
CN(C)c1ccc2c(C(F)(F)F)cc(=O)oc2c1 [Cou485, 7-(dimethylamino)-4-(trifluormethyl)-coumarin] | very weak binding

Each molecule was assayed on ABLE (assay: ABLE-apixaban interaction, ligand efficiency). Details: binding to ABLE.
Source text: Supplementary Table 1 ç Ligand efficiency for starting ABLE-apixaban and FABLE-
Protein Ligand (kcal/mol) Atoms Efficiency
aFABLED1 was designated as FABLE.

Structure (SMILES) | Ligand Efficiency | ΔG [kcal/mol]
COc1ccc(-n2nc(C(N)=O)c3c2C(=O)N(c2ccc(N4CCCCC4=O)cc2)CC3)cc1 [Apixaban, apixaban] | 0.213 kcal/(mol • heavy atom count) | -7.23

These molecules were tested on FABLE (assay: Fluorescence enhancement of coumarins on binding FABLE). Details: 0.5 µM fluorophore with 6 µM FABLE.
Method: protein coeluting with the coumarin at the same time. Incubation of 1.5 µM Cou485 and Cou481

Structure (SMILES) | increase in fluorescence at 510 nm [fold]
O=c1cc(C(F)(F)F)c2cc3c4c(c2o1)CCCN4CCC3 [Cou540a] | 117

Same assay, conditions: 1.5 µM fluorophore with 40 µM FABLE

Structure (SMILES) | increase of fluorescence intensity at 470 nm [fold]
CCN(CC)c1ccc2c(C(F)(F)F)cc(=O)oc2c1 [Cou481] | 122
CN(C)c1ccc2c(C(F)(F)F)cc(=O)oc2c1 [Cou485, 7-(dimethylamino)-4-(trifluormethyl)-coumarin] | 48

Same assay, conditions: at saturating concentrations of FABLE

Structure (SMILES) | maximal fluorescence enhancement [fold]
CCN(CC)c1ccc2c(C(F)(F)F)cc(=O)oc2c1 [Cou481] | 123
CN(C)c1ccc2c(C(F)(F)F)cc(=O)oc2c1 [Cou485, 7-(dimethylamino)-4-(trifluormethyl)-coumarin] | 48
O=c1cc(C(F)(F)F)c2cc3c4c(c2o1)CCCN4CCC3 [Cou540a] | 117

These molecules were tested on ABLE (assay: Crystallographic fragment screening of ABLE crystals (PanDDA)). Details: PanDDA comment on event density.
Type: binding
Method: Lyophilized ABLE was dissolved in water to a concentration of 18 mg/ml. […] We screened the 320 compound Enamine Essential fragment library against ABLE. […] Crystals were incubated with fragments for 2–4 hours before being looped and vitrified in liquid nitrogen. X-ray diffraction data were collected at beamline 8.3.1 of the Advanced Light Source (ALS) and beamlines 12–1 and 12–2 of the Stanford Synchrotron Radiation Lightsource (SSRL). Data collection strategies are summarized in Supplementary File 1.
We initially refined a model of ABLE against a dataset collected from a crystal soaked only in 10% DMSO. […] Waters were placed automatically in early-stage refinement using phenix.refine into peaks in the FO-FC difference map >3.5 σ. In the later stages of refinement, waters were manually added or deleted, and hydrogens were refined with parameters constrained by those of the non-hydrogen atom (the riding hydrogen model). […] Coordinates and structure factor amplitudes were deposited in the PDB with accession code 9DW2. […] The pipeline consisted of initial rigid body refinement with refinement followed by two cycles of restrained refinement in Refmac: the first with harmonic distance restraints (jelly-body restraints, four cycles) and the second with restrained refinement (eight cycles).
The background electron density map was calculated from 30 datasets (Supplementary File 1): six datasets were from crystals soaked in 10% DMSO and the remaining datasets came from fragment-soaked crystals where no fragment was detected. We collected multiple datasets for selected fragments. If fragments were detected in multiple datasets, we modeled the fragment with the highest occupancy based on the PanDDA event map and 1-BDC (Background Density Correction) value. […] Alternative conformations were modeled for residues when the RMSD exceeded 0.15 Å from the apo structure. […] For these fragments, residues 44–48 were modeled with a second conformation (altloc C). The multi-state models were initially refined with five phenix.refine macrocycles without hydrogens, followed by 10 macrocycles with riding hydrogens. […] Fragment occupancy was determined by inspection of mFO-DFC difference map peaks after refinement.

Structure (SMILES) | Comment
NS(=O)(=O)c1cc(Cl)cc(Cl)c1 [ZINC000000090873] | Weak density, not modeled
CC(=O)c1cccc(N)c1 [ZINC000000157542] | Weak density, not modeled
Oc1ccc2[nH]ccc2c1 [ZINC000000395637] | Weak density, not modeled

Same assay, conditions: PanDDA event 1, 1 - background density correction

Structure (SMILES) | 1-BDC
NS(=O)(=O)c1cc(Cl)cc(Cl)c1 [ZINC000000090873] | 0.6
O=C(O)CCc1ccccc1 [ZINC000000154564] | 0.11
CC(=O)c1cccc(N)c1 [ZINC000000157542] | 0.32
Cn1ncc(C(=O)O)c1-c1ccccc1 [ZINC000000159056] | 0.18
Nc1ccc2c(c1)S(=O)(=O)C=C2 [ZINC000000162015] | 0.31
Oc1ccc2c(c1)OCO2 [ZINC000000164504] | 0.38
COc1ccc(S(N)(=O)=O)cc1 [ZINC000000270975] | 0.42
O=C(O)c1ccc(Br)cc1 [ZINC000000388063] | 0.34
Oc1ccc2[nH]ccc2c1 [ZINC000000395637] | 0.21
CCc1ccc(S(N)(=O)=O)cc1 [ZINC000000403990] | 0.31
Nc1ccc2oc(=O)ccc2c1 [ZINC000001612349] | 0.21
Cc1ccccc1S(N)(=O)=O [ZINC000002567980] | 0.13
CCCc1ccc(S(N)(=O)=O)cc1 [ZINC000002941706] | 0.38
O=C(O)CCc1nc2cc(Cl)ccc2s1 [ZINC000004219237] | 0.2
OCc1cccc2c1OCCO2 [ZINC000004271832] | 0.36
Nc1cccc(Oc2ccccn2)c1 [ZINC000012370416] | 0.23

Same assay, conditions: PanDDA information, per dataset

Structure (SMILES) | Comment (PanDDA hit assessment)
COc1ccc(S(N)(=O)=O)cc1 [ZINC000000270975] | Duplicate, not modeled
CCCc1ccc(S(N)(=O)=O)cc1 [ZINC000002941706] | Duplicate, not modeled

Same assay, conditions: crystallographic fragment screen of ABLE crystals, Enamine Essential library, PanDDA analysis

Structure (SMILES) | Hit (PanDDA)
NS(=O)(=O)c1cc(Cl)cc(Cl)c1 [ZINC000000090873] | TRUE
O=C(O)CCc1ccccc1 [ZINC000000154564] | TRUE
CC(=O)c1cccc(N)c1 [ZINC000000157542] | TRUE
Cn1ncc(C(=O)O)c1-c1ccccc1 [ZINC000000159056] | TRUE
Nc1ccc2c(c1)S(=O)(=O)C=C2 [ZINC000000162015] | TRUE
Oc1ccc2c(c1)OCO2 [ZINC000000164504] | TRUE
COc1ccc(S(N)(=O)=O)cc1 [ZINC000000270975] | TRUE
O=C(O)c1ccc(Br)cc1 [ZINC000000388063] | TRUE
Oc1ccc2[nH]ccc2c1 [ZINC000000395637] | TRUE
CCc1ccc(S(N)(=O)=O)cc1 [ZINC000000403990] | TRUE
Nc1ccc2oc(=O)ccc2c1 [ZINC000001612349] | TRUE
Cc1ccccc1S(N)(=O)=O [ZINC000002567980] | TRUE
CCCc1ccc(S(N)(=O)=O)cc1 [ZINC000002941706] | TRUE
O=C(O)CCc1nc2cc(Cl)ccc2s1 [ZINC000004219237] | TRUE
OCc1cccc2c1OCCO2 [ZINC000004271832] | TRUE
Nc1cccc(Oc2ccccn2)c1 [ZINC000012370416] | TRUE

Same assay, conditions: fragment modeled into PanDDA event map

Structure (SMILES) | Modeled
O=C(O)CCc1ccccc1 [ZINC000000154564] | TRUE
Cn1ncc(C(=O)O)c1-c1ccccc1 [ZINC000000159056] | TRUE
Nc1ccc2c(c1)S(=O)(=O)C=C2 [ZINC000000162015] | TRUE
Oc1ccc2c(c1)OCO2 [ZINC000000164504] | TRUE
COc1ccc(S(N)(=O)=O)cc1 [ZINC000000270975] | TRUE
O=C(O)c1ccc(Br)cc1 [ZINC000000388063] | TRUE
CCc1ccc(S(N)(=O)=O)cc1 [ZINC000000403990] | TRUE
Nc1ccc2oc(=O)ccc2c1 [ZINC000001612349] | TRUE
Cc1ccccc1S(N)(=O)=O [ZINC000002567980] | TRUE
CCCc1ccc(S(N)(=O)=O)cc1 [ZINC000002941706] | TRUE
O=C(O)CCc1nc2cc(Cl)ccc2s1 [ZINC000004219237] | TRUE
OCc1cccc2c1OCCO2 [ZINC000004271832] | TRUE
Nc1cccc(Oc2ccccn2)c1 [ZINC000012370416] | TRUE

The molecules below were run on FABLE (assay: Screening fluorophore library with FABLE). Details: 38 µM FABLE, 50 μM coumarin fluorophore, PBS, 30 minutes.
Method: FABLE and 50 μM coumarin fluorophores, including A1 to D4, whose individual structures are
Besides fluorophores with coumarin scaffolds, we also
evaluated the interaction of FABLE with other environment-sensitive fluorophores, including
L036 to TMR. Those fluorophores dissolved in DMSO were added to FABLE in PBS to a final
The fluorescence of each fluorephore was
recorded with BioTek Synergy Neo2 Reader after incubating at room temperature for 30 minutes.
After incubation at room temperature for 30 min, the resulting complex
was injected to the Fast Protein Liquid Chromatography (FPLC) equipped with a Superdex 75
Increase 5/150 analytical column.
Determining binding constants
(§1) We used fluorescence titration experiments to determine the binding dissociation constants of
(§2) The excitation and emission wavelength with the largest shift upon FABLE interaction was used
For each ligand, FABLE in PBS was serially diluted while fixing the concentration
(§3) of ligand at indicated values. Global fitting with 2 fixed ligand concentrations was used to fit KD
(§4) 𝐹𝑙𝑢𝑜𝑟𝑒𝑠𝑐𝑒𝑛𝑐𝑒 = 𝑏!"#$%[𝐿𝑖𝑔𝑎𝑛𝑑!"#$%] + 𝑏&’(([𝐿𝑖𝑔𝑎𝑛𝑑&’((]
(§5) • Ligandtotal: total concentration of ligand
• Ligandfree: free ligand
(§6) • Ligandbound: ligand binding to protein
• Ligandfree = ligandtotal- ligandbound
(§7) • bfree = brightness (fluorescence) of free ligand per μM
(§8) • bbound = brightness (fluorescence) of bound ligand per μM

Structure (SMILES) | increase in fluorescence intensity in the presence of FABLE vs. the starting ABLE protein [fold]
CCN(CC)c1ccc2c(C(F)(F)F)cc(=O)oc2c1 [Cou481] | > 4
O=c1cc(C(F)(F)F)c2cc3c4c(c2o1)CCCN4CCC3 [Cou540a] | > 4

Each molecule was assayed on FABLED2 (assay: Fluorescence titration of design FABLED2 into Cou485). Details: binding to FABLED2.
Method: Left column: Fluorescence of
(§9) Cou485 at two fixed concentrations of 3 μM and 6 μM were measured in the presence of increasing
(§10) amounts of each protein. The dissociation constant was obtained by globally fitting a single-site
(§11) binding model to data, as described at Supplementary Methods. The error bars represent standard
(§12) deviations of three independent measurements.
Determining binding constants
as §1
(§13) FABLE for Cou485, Cou481, and Cou540a with BioTek Synergy Neo2 Reader.
as §2
(§14) to quantify the bound ligand, which is 395 nm (excitation) and 470 nm (emission) for Cou485,
(§15) 410 nm (excitation) and 470 nm (emission) for Cou481, 440 nm (excitation) and 510 nm (emission)
(§16) for Cou540a. For each ligand, FABLE in PBS was serially diluted while fixing the concentration
as §3
(§17) using GraphPad Prism. bfree was obtained by measuring the fluorescence of the ligand in PBS after
as §4, §5
• Ligandfree: free ligand
(§18) • Ligandbound: ligand binding to protein […]
as §7, §8

Structure (SMILES) | Ligand Efficiency | ΔG [kcal/mol]
CN(C)c1ccc2c(C(F)(F)F)cc(=O)oc2c1 [Cou485, 7-(dimethylamino)-4-(trifluormethyl)-coumarin] | 0.344 kcal/(mol • heavy atom count) | -6.19

These molecules were tested on FABLED3 (assay: Fluorescence titration of design FABLED3 into Cou485). Details: binding to FABLED3.
Method: Left column: Fluorescence of
as §9, §10, §11, §12
Determining binding constants
as §1, §13, §2, §14, §15, §16, §3, §17, §4, §5
• Ligandfree: free ligand
as §18, §7, §8

Structure (SMILES) | Ligand Efficiency | ΔG [kcal/mol]
CN(C)c1ccc2c(C(F)(F)F)cc(=O)oc2c1 [Cou485, 7-(dimethylamino)-4-(trifluormethyl)-coumarin] | 0.334 kcal/(mol • heavy atom count) | -6.02

Each molecule was assayed on FABLED4 (assay: Fluorescence titration of design FABLED4 into Cou485). Details: binding to FABLED4.
Method: Left column: Fluorescence of
as §9, §10, §11, §12
Determining binding constants
as §1, §13, §2, §14, §15, §16, §3, §17, §4, §5
• Ligandfree: free ligand
as §18, §7, §8

Structure (SMILES) | Ligand Efficiency | ΔG [kcal/mol]
CN(C)c1ccc2c(C(F)(F)F)cc(=O)oc2c1 [Cou485, 7-(dimethylamino)-4-(trifluormethyl)-coumarin] | 0.309 kcal/(mol • heavy atom count) | -5.56

What follows are molecules tested on FABLED5 (assay: Fluorescence titration of design FABLED5 into Cou485). Details: binding to FABLED5.
Method: Left column: Fluorescence of
as §9, §10, §11, §12
Determining binding constants
as §1, §13, §2, §14, §15, §16, §3, §17, §4, §5
• Ligandfree: free ligand
as §18, §7, §8

Structure (SMILES) | Ligand Efficiency | ΔG [kcal/mol]
CN(C)c1ccc2c(C(F)(F)F)cc(=O)oc2c1 [Cou485, 7-(dimethylamino)-4-(trifluormethyl)-coumarin] | 0.317 kcal/(mol • heavy atom count) | -5.70

The molecules below were run against FABLE (assay: Fluorescence titration of FABLE into coumarin fluorophores (single-site model, global fit)). Details: FABLE titrated into two fixed fluorophore concentrations, PBS, global single-site fit.
Method: Left column: Fluorescence of
as §9, §10, §11, §12
Determining binding constants
as §1, §13, §2, §14, §15, §16, §3, §17, §5
• Ligandfree: free ligand
as §6
• Ligandfree = ligandtotal- ligandbound
as §7, §8
• Proteintotal: total protein concentration
• N: binding stoichiometry
• KD: binding constant of protein-ligand interation

Structure (SMILES) | Kd [µM]
CCN(CC)c1ccc2c(C(F)(F)F)cc(=O)oc2c1 [Cou481] | 5.8 ± 0.7
CN(C)c1ccc2c(C(F)(F)F)cc(=O)oc2c1 [Cou485, 7-(dimethylamino)-4-(trifluormethyl)-coumarin] | 27.8 ± 1
O=c1cc(C(F)(F)F)c2cc3c4c(c2o1)CCCN4CCC3 [Cou540a] | 2 ± 0.1

Same assay, conditions: binding to FABLED1 (= FABLE)

Structure (SMILES) | Ligand Efficiency | ΔG [kcal/mol]
CCN(CC)c1ccc2c(C(F)(F)F)cc(=O)oc2c1 [Cou481] | 0.357 kcal/(mol • heavy atom count) | -7.14
CN(C)c1ccc2c(C(F)(F)F)cc(=O)oc2c1 [Cou485, 7-(dimethylamino)-4-(trifluormethyl)-coumarin] | 0.345 kcal/(mol • heavy atom count) | -6.21
O=c1cc(C(F)(F)F)c2cc3c4c(c2o1)CCCN4CCC3 [Cou540a] | 0.353 kcal/(mol • heavy atom count) | -7.77

These molecules were tested against five FABLE Designs (assay: Cou485 fluorescence and binding with the five designed FABLE proteins (stated collectively)). Details: all five designed proteins.
Method: as §9, §10, §11, §12
Determining binding constants
as §1, §13, §2, §14, §15, §16, §3, §17, §4, §5
• Ligandfree: free ligand
as §18, §7, §8

Structure (SMILES) | Kd [µM]
CN(C)c1ccc2c(C(F)(F)F)cc(=O)oc2c1 [Cou485, 7-(dimethylamino)-4-(trifluormethyl)-coumarin] | < 100
